Biological target: T1, MLLT1 (Homo sapiens, UniProt Q03111)
T1 construct: endogenous in cells; host or cells: MV4-11 (ATCC CRL-9591)
T1 sequence (Q03111 1-559): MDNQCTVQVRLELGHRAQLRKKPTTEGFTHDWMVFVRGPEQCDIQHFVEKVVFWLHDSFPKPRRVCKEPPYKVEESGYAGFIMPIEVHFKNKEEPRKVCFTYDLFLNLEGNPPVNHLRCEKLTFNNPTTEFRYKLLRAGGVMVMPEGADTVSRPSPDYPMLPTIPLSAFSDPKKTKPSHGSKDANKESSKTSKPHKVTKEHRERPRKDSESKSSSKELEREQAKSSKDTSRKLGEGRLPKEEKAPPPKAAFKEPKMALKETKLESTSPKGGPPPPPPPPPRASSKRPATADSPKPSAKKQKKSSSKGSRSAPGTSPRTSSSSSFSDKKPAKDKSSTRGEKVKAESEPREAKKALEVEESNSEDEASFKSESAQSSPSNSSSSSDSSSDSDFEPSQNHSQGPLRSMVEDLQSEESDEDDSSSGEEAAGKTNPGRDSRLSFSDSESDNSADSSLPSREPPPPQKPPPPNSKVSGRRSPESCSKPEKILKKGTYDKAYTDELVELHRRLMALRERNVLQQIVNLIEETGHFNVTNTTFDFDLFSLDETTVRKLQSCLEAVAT
Experiment: MLLT1 Degradation Assay (JESS automated chemiluminescent detection, MV4-11 cells)
Type: cell-based
Conditions: 24h, with respect to DMSO control; for MLLT1 % Degradation @ 0.01 µM: 0.01 µM (10 nM) test compound; for MLLT1 % Degradation @ 0.1 µM: 0.1 µM (100 nM) test compound; for MLLT 1 % Degradation @ 1 µM: 1 µM (1000 nM) test compound
In short: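 MV4-11 cells were treated for 24 h at 37 °C, 5% CO2 with compound at 1000, 100 and 10 nM (0.1% DMSO). MLLT1 was quantified by automated capillary chemiluminescent immunodetection (JESS). Band peak areas were expressed as % degradation relative to DMSO control.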

Compound | MLLT1 % Degradation @ 0.01 µM | MLLT1 % Degradation @ 0.1 µM | MLLT 1 % Degradation @ 1 µM
CN1CCC[C@@H]1c1cc2cnc(NC(=O)c3ccc(-c4cnn(CCCC5CCN(c6cccc(C(=O)N[C@H]7CCC(=O)NC7=O)n6)CC5)c4)cc3)cc2[nH]1 [Example 60, N-((S)-2,6-dioxopiperidin-3-yl)-6-(4-(3-(4-(4-((2-((R)-1-methylpyrrolidin-2-yl)-1H-pyrrolo[3,2-c]pyridin-6-yl)carbamoyl)phenyl)-1H-pyrazol-1-yl)propyl)piperidin-1-yl)picolinamide] | A (Category A: A ≥ 75% degradation) | A (Category A: A ≥ 75% degradation) | A (Category A: A ≥ 75% degradation)
CN1CCC[C@@H]1c1cc2cnc(NC(=O)c3ccc(-c4cnn(CCOC5CCN(c6cccc(C(=O)N[C@H]7CCC(=O)NC7=O)n6)CC5)c4)cc3)cc2[nH]1 [Example 61, N-((S)-2,6-dioxopiperidin-3-yl)-6-(4-(2-(4-(4-((2-((R)-1-methylpyrrolidin-2-yl)-1H-pyrrolo[3,2-c]pyridin-6-yl)carbamoyl)phenyl)-1H-pyrazol-1-yl)ethoxy)piperidin-1-yl)picolinamide] | A (Category A: A ≥ 75% degradation) | A (Category A: A ≥ 75% degradation) | B (Category B: 50% ≤ B < 75% degradation)
CN1CCC[C@@H]1c1cc2cnc(NC(=O)c3ccc(-c4cnn(CCCC#Cc5cccc(C(=O)N[C@H]6CCC(=O)NC6=O)n5)c4)cc3)cc2[nH]1 [Example 62, N-((S)-2,6-dioxopiperidin-3-yl)-6-(5-(4-(4-((2-((R)-1-methylpyrrolidin-2-yl)-1H-pyrrolo[3,2-c]pyridin-6-yl)carbamoyl)phenyl)-1H-pyrazol-1-yl)pent-1-yn-1-yl) picolinamide] | B (Category B: 50% ≤ B < 75% degradation) | A (Category A: A ≥ 75% degradation) | B (Category B: 50% ≤ B < 75% degradation)
CN1CCC[C@@H]1c1cc2cnc(NC(=O)c3ccc(CCCC#Cc4cccc(N5CCC(=O)NC5=O)n4)cc3)cc2[nH]1 [Example 63, (R)-4-(5-(6-(2,4-dioxotetrahydropyrimidin-1(2H)-yl)pyridin-2-yl)pent-4-yn-1-yl)-N-(2-(1-methylpyrrolidin-2-yl)-1H-pyrrolo[3,2-c]pyridin-6-yl)benzamide] | D (Category D: D < 25% degradation) | D (Category D: D < 25% degradation) | C (Category C: 25% ≤ C < 50% degradation)
CN1CCC[C@@H]1c1cc2cnc(NC(=O)c3ccc(N4CCC(N5CCN(c6cccc7c6C(=O)N(C6CCC(=O)NC6=O)C7=O)CC5)CC4)nc3)cc2[nH]1 (stereo partly drawn) [Example 64, 6-(4-(4-(2-(2,6-dioxopiperidin-3-yl)-1,3-dioxoisoindolin-4-yl)piperazin-1-yl)piperidin-1-yl)-N-(2-((R)-1-methylpyrrolidin-2-yl)-1H-pyrrolo[3,2-c]pyridin-6-yl)nicotinamide] | B (Category B: 50% ≤ B < 75% degradation) | B (Category B: 50% ≤ B < 75% degradation) | A (Category A: A ≥ 75% degradation)
CN1CCC[C@@H]1c1cc2cnc(NC(=O)c3cnc(N4CCC(C#Cc5cccc6c5CN(C5CCC(=O)NC5=O)C6=O)CC4)nc3)cc2[nH]1 (stereo partly drawn) [Example 65, 2-(4-((2-(2,6-dioxopiperidin-3-yl)-1-oxoisoindolin-4-yl)ethynyl)piperidin-1-yl)-N-(2-((R)-1-methylpyrrolidin-2-yl)-1H-pyrrolo[3,2-c]pyridin-6-yl)pyrimidine-5-carboxamide] | B (Category B: 50% ≤ B < 75% degradation) | B (Category B: 50% ≤ B < 75% degradation) | B (Category B: 50% ≤ B < 75% degradation)
CN1CCC[C@@H]1c1cc2cnc(NC(=O)c3ccc(OCC#Cc4cccc5c4n(C)c(=O)n5C4CCC(=O)NC4=O)cc3)cc2[nH]1 (stereo partly drawn) [Example 66, 4-((3-(1-(2,6-dioxopiperidin-3-yl)-3-methyl-2-oxo-2,3-dihydro-1H-benzo[d]imidazol-4-yl)prop-2-yn-1-yl)oxy)-N-(2-((R)-1-methylpyrrolidin-2-yl)-1H-pyrrolo[3,2-c]pyridin-6-yl)benzamide] | A (Category A: A ≥ 75% degradation) | A (Category A: A ≥ 75% degradation) | A (Category A: A ≥ 75% degradation)
CN1CCC[C@@H]1c1cc2cnc(NC(=O)c3ccc(N4CCC(c5ccc(-c6cccc7c6CN(C6CCC(=O)NC6=O)C7=O)cc5)CC4)nc3)cc2[nH]1 (stereo partly drawn) [Example 67, 6-(4-(4-(2-(2,6-dioxopiperidin-3-yl)-1-oxoisoindolin-4-yl)phenyl)piperidin-1-yl)-N-(2-((R)-1-methylpyrrolidin-2-yl)-1H-pyrrolo[3,2-c]pyridin-6-yl)nicotinamide] | A (Category A: A ≥ 75% degradation) | A (Category A: A ≥ 75% degradation) | A (Category A: A ≥ 75% degradation)
CN1CCC[C@@H]1c1[nH]c2cc(NC(=O)c3ccc(CCCCC#Cc4cccc5c4CN(C4CCC(=O)NC4=O)C5=O)nc3)ncc2c1Cl (stereo partly drawn) [Example 71, N-(3-chloro-2-((R)-1-methylpyrrolidin-2-yl)-1H-pyrrolo[3,2-c]pyridin-6-yl)-6-(6-(2-(2,6-dioxopiperidin-3-yl)-1-oxoisoindolin-4-yl)hex-5-yn-1-yl) nicotinamide] | A (Category A: A ≥ 75% degradation) | A (Category A: A ≥ 75% degradation) | B (Category B: 50% ≤ B < 75% degradation)
CN1CCC[C@@H]1c1[nH]c2cc(NC(=O)c3ccc(N4CCN(CC#Cc5cccc6c5CN(C5CCC(=O)NC5=O)C6=O)CC4)nc3)ncc2c1Cl (stereo partly drawn) [Example 72, N-(3-chloro-2-((R)-1-methylpyrrolidin-2-yl)-1H-pyrrolo[3,2-c]pyridin-6-yl)-6-(4-(3-(2-(2,6-dioxopiperidin-3-yl)-1-oxoisoindolin-4-yl)prop-2-yn-1-yl)piperazin-1-yl)nicotinamide] | A (Category A: A ≥ 75% degradation) | A (Category A: A ≥ 75% degradation) | C (Category C: 25% ≤ C < 50% degradation)
CCN1CCC[C@@H]1c1cc2cnc(NC(=O)c3ccc(N4CCC(CC#Cc5cccc6c5CN(C5CCC(=O)NC5=O)C6=O)CC4)nc3)cc2[nH]1 (stereo partly drawn) [Example 73, 6-(4-(3-(2-(2,6-dioxopiperidin-3-yl)-1-oxoisoindolin-4-yl)prop-2-yn-1-yl)piperidin-1-yl)-N-(2-((R)-1-ethylpyrrolidin-2-yl)-1H-pyrrolo[3,2-c]pyridin-6-yl)nicotinamide] | B (Category B: 50% ≤ B < 75% degradation) | A (Category A: A ≥ 75% degradation) | B (Category B: 50% ≤ B < 75% degradation)
CCN1CCC[C@@H]1c1cc2cnc(NC(=O)c3ccc(CCCCC#Cc4cccc5c4CN(C4CCC(=O)NC4=O)C5=O)nc3)cc2[nH]1 (stereo partly drawn) [Example 74, 6-(6-(2-(2,6-dioxopiperidin-3-yl)-1-oxoisoindolin-4-yl)hex-5-yn-1-yl)-N-(2-((R)-1-ethylpyrrolidin-2-yl)-1H-pyrrolo [3,2-c]pyridin-6-yl) nicotinamide] | B (Category B: 50% ≤ B < 75% degradation) | B (Category B: 50% ≤ B < 75% degradation) | B (Category B: 50% ≤ B < 75% degradation)
CN1CCC[C@@H]1c1cc2cnc(NC(=O)c3ccc(N4CCC(C5CCN(c6cccc7c6CN(C6CCC(=O)NC6=O)C7=O)CC5)CC4)nc3)cc2[nH]1 (stereo partly drawn) [Example 75, 6-(1'-(2-(2,6-dioxopiperidin-3-yl)-1-oxoisoindolin-4-yl)-[4,4'-bipiperidin]-1-yl)-N-(2-((R)-1-methylpyrrolidin-2-yl)-1H-pyrrolo[3,2-c]pyridin-6-yl)nicotinamide] | A (Category A: A ≥ 75% degradation) | A (Category A: A ≥ 75% degradation) | A (Category A: A ≥ 75% degradation)
